The structures appear in SMILES notation.

For orientation: melting point means the temperature, or range, at which the solid turns liquid. On to `CC(C)(C)OC(=O)N1CCOC(C2=C(C#N)C(c3cccc(C#N)c3Br)c3c[nH]nc3N2)C1` (stereo not drawn) [Example 1044, 4-(2-Bromo-3-cyanophenyl)-6-(4-t-butoxycarbonylmorpholin-2-yl)-5-cyano-4,7-dihydro-2H-pyrazolo[3,4-b]pyridine], for which the melting point is 219 °C.
Regarding `CCCC1=C(C(=O)OCC)C(c2cccc3nonc23)c2c[nH]nc2N1` (single isomer, unassigned; (+)) [Example 116, (+)Ethyl 4-(2,1,3-benzoxadiazol-4-yl)-4,7-dihydro-6-propyl-2H-pyrazolo[3,4-b]pyridine-5-carboxylate], the melting point was 159 °C.
Molecule `N#CC1=C(C2CCCCC2=O)Nc2n[nH]cc2C1c1cccc(C#N)c1Br` (stereo not drawn) [Example 1062, 4-(2-Bromo-3-cyanophenyl)-5-cyano-4,7-dihydro-6-(2-oxocyclohexan-1-yl)-2H-pyrazolo[3,4-b]pyridine] came in with a melting point of 273 °C.
In the case of `CCC1=C(C#N)C(c2ccccc2OC)c2c[nH]nc2N1` (stereo not drawn) [Example 194, 5-Cyano-6-ethyl-4,7-dihydro-4-(2-methoxyphenyl)-2H-pyrazolo[3,4-b]pyridine] it was 230 to 232 °C; in that of `CCOC(=O)C1=C(c2ccccc2)Nc2n[nH]cc2C1c1ccccc1OC` (stereo not drawn) [Example 92, Ethyl 4,7-dihydro-4-(2-methoxyphenyl)-6-phenyl-2H-pyrazolo[3,4-b]pyridine-5-carboxylate], 195 °C; in that of `CC(C)(C)OC(=O)N1CC=C(C2=C(C#N)C(c3cccc4nonc34)c3c[nH]nc3N2)CC1` (stereo not drawn) [Example 1012, 4-(2,1,3-Benzoxadiazol-4-yl)-6-(1-t-butoxycarbonyl-1,2,3,6-tetrahydropyridin-4-yl)-5-cyano-4,7-dihydro-2H-pyrazolo[3,4-b]pyridine], 222 °C.
As to `CCCC1=C(C(=O)OCC)C(c2ccsc2)c2c[nH]nc2N1.O=C(O)/C=C\C(=O)O` (stereo not drawn) [Example 65, Ethyl 4,7-dihydro-6-propyl-4-(thiophen-3-yl)-2H-pyrazolo[3,4-b]pyridine-5-carboxylate maleate], the melting point was in the range of 141 to 143 °C.
`CCOC(=O)C1=C(c2ccccc2)Nc2n[nH]cc2C1c1cccc2nonc12` (stereo not drawn) [Example 114, Ethyl 4-(2,1,3-benzoxadiazol-4-yl)-4,7-dihydro-6-phenyl-2H-pyrazolo[3,4-b]pyridine-5-carboxylate] returned a melting point of 190 °C.
Consider `CCCC1=C(C(=O)OCC)C(c2ccccc2CC)c2cn[nH]c2N1` (stereo not drawn) [Example 100, Ethyl 4-(2-ethylphenyl)-4,7-dihydro-6-propyl-1H-pyrazolo[3,4-b]pyridine-5-carboxylate], for which the melting point was found to be 186 °C.
In the case of `CCOC(=O)C1=C(C(F)(F)F)Nc2n[nH]cc2C1c1ccccc1F` (stereo not drawn) [Example 13, Ethyl 4-(2-fluorophenyl)-4,7-dihydro-6-trifluoromethyl-2H-pyrazolo[3,4-b]pyridine-5-carboxylate] it was 119 to 120 °C; in that of `CN1CC=C(C2=C(C#N)C(c3cccc4nonc34)c3c[nH]nc3N2)CC1` (stereo not drawn) [Example 1014, 4-(2,1,3-Benzoxadiazol-4-yl)-5-cyano-4,7-dihydro-6-(1-methyl-1,2,3,6-tetrahydropyridin-4-yl)-2H-pyrazolo[3,4-b]pyridine], 218 °C; in that of `N#CC1=C(C2CC2)Nc2n[nH]cc2C1c1cccc(N2CCOCC2)c1` (stereo not drawn) [Example 366, 5-Cyano-6-cyclopropyl-4,7-dihydro-4-(3-(morpholin-4-yl)phenyl)-2H-pyrazolo[3,4-b]pyridine], over 260 °C.
Take `N#CC1=C(c2c[nH]c3ccccc23)Nc2n[nH]cc2C1c1cccc2nonc12` (stereo not drawn) [Example 335, 4-(2,1,3-Benzoxadiazol-4-yl)-5-cyano-4,7-dihydro-6-(indol-3-yl)-2H-pyrazolo[3,4-b]pyridine]: the melting point is 238 °C.
Molecule `COCn1cc(C2=C(C#N)C(c3cccc4nonc34)c3c[nH]nc3N2)c2ccccc21` (stereo not drawn) [Example 293, 4-(2,1,3-Benzoxadiazol-4-yl)-5-cyano-4,7-dihydro-6-(1-methoxymethylindol-3-yl)-2H-pyrazolo[3,4-b]pyridine] came in with a melting point of 200 °C.
Take `N#CC1=C(c2cccs2)Nc2n[nH]cc2C1c1cccc2nsnc12` (stereo not drawn) [Example 245, 4-(2,1,3-Benzothiadiazol-4-yl)-5-cyano-4,7-dihydro-6-(thiophen-2-yl)-2H-pyrazolo[3,4-b]pyridine]: the melting point came out at 254 °C.
Molecule `CCCC1=C(C(=O)OCC)C(c2cccc3ccsc23)c2c[nH]nc2N1` (stereo not drawn) [Example 106, Ethyl 4-(benzo[b]thiophen-7-yl)-4,7-dihydro-6-propyl-2H-pyrazolo[3,4-b]pyridine-5-carboxylate] showed a melting point of 166 °C.
`CN1CCCC(C2=C(C#N)C(c3cccc4nonc34)c3c[nH]nc3N2)C1` (stereo not drawn) [Example 1006, 4-(2,1,3-Benzoxadiazol-4-yl)-5-cyano-4,7-dihydro-6-(1-methylpiperidin-3-yl)-2H-pyrazolo[3,4-b]pyridine] registered a melting point of 228 °C.
To `CN1CCC(C2=C(C#N)C(c3cccc(C#N)c3Br)c3c[nH]nc3N2)CC1` (stereo not drawn) [Example 1038, 4-(2-Bromo-3-cyanophenyl)-5-cyano-4,7-dihydro-6-(1-methylpiperidin-4-yl)-2H-pyrazolo[3,4-b]pyridine] belongs over 270 °C.
Regarding `CCCC1=C(C#N)C(c2ccccc2Cl)c2c(n[nH]c2-c2ccccc2OC)N1` (stereo not drawn) [Example 296, 4-(2-Chlorophenyl)-5-cyano-4,7-dihydro-3-(2-methoxyphenyl)-6-propyl-2H-pyrazolo[3,4-b]pyridine], the melting point is over 270 °C.
The molecule `CCCOC(=O)n1cc2c(n1)NC(CCC)=C(C(=O)OCC)C2c1ccccc1Cl` (stereo not drawn) [Example 222, Ethyl 4-(2-chlorophenyl)-4,7-dihydro-2-propoxycarbonyl-6-propyl-2H-pyrazolo[3,4-b]pyridine-5-carboxylate] returned a melting point of 59 °C.
For the molecule `CCCC1=C(C#N)C(c2cccc(N3CCOCC3)c2)c2c[nH]nc2N1` (stereo not drawn) [Example 364, 5-Cyano-4,7-dihydro-4-(3-(morpholin-4-yl)phenyl)-6-propyl-2H-pyrazolo[3,4-b]pyridine], the melting point is 196 to 200 °C.
`CCCC1=C(C#N)C(c2ccccc2Cl)c2cn(C(=O)Nc3ccccc3)nc2N1` (stereo not drawn) [Example 284, 4-(2-Chlorophenyl)-5-cyano-4,7-dihydro-2-phenylcarbamoyl-6-propyl-2H-pyrazolo[3,4-b]pyridine] came in with a melting point of 167 to 171 °C.
Turning to `N#CC1=C(C2CCNCC2)Nc2n[nH]cc2C1c1cccc(C#N)c1Br` (stereo not drawn) [Example 1037, 4-(2-Bromo-3-cyanophenyl)-5-cyano-4,7-dihydro-6-(piperidin-4-yl)-2H-pyrazolo[3,4-b]pyridine], the melting point was over 270 °C.
As to `N#CC1=C(c2ccccc2)Nc2n[nH]cc2C1c1ccccc1[N+](=O)[O-]` (stereo not drawn) [Example 154, 5-Cyano-4,7-dihydro-4-(2-nitrophenyl)-6-phenyl-2H-pyrazolo[3,4-b]pyridine], the melting point is 221 °C.
As to `CC(=O)C1=C(C#N)C(c2cccc3nonc23)c2c[nH]nc2N1` (stereo not drawn) [Example 1082, 6-Acetyl-4-(2,1,3-benzoxadiazol-4-yl)-5-cyano-4,7-dihydro-2H-pyrazolo[3,4-b]pyridine], the melting point was 230 °C (dec.).
With `N#CC1=C(CO)Nc2n[nH]cc2C1c1cccc2nonc12` (stereo not drawn) [Example 257, 4-(2,1,3-Benzoxadiazol-4-yl)-5-cyano-4,7-dihydro-6-hydroxymethyl-2H-pyrazolo[3,4-b]pyridine], the melting point is 215 to 220 °C (dec.).
Molecule `CCCC1=C(C#N)C(c2ccccc2Cl)c2c(n[nH]c2C(OC)OC)N1` (stereo not drawn) [Example 336, 4-(2-Chlorophenyl)-5-cyano-4,7-dihydro-3-dimethoxymethyl-6-propyl-2H-pyrazolo[3,4-b]pyridine] registered a melting point of 212 °C.
The molecule `CCCC1=C(C#N)C(c2cccc(C(F)(F)F)c2Cl)c2c[nH]nc2N1` (stereo not drawn) [Example 201, 4-(2-Chloro-3-trifluoromethylphenyl)-5-cyano-4,7-dihydro-6-propyl-2H-pyrazolo[3,4-b]pyridine] showed a melting point of over 250 °C.
`COc1ccc(C2=C(C#N)C(c3ccccc3Cl)c3c[nH]nc3N2)cc1` (stereo not drawn) [Example 95, 4-(2-Chlorophenyl)-5-cyano-4,7-dihydro-6-(4-methoxyphenyl)-2H-pyrazolo[3,4-b]pyridine] came in with a melting point of 124 °C.
Regarding `CCCC1=C(C(=O)OCC)C(c2ccccc2OC(C)C)c2c[nH]nc2N1` (stereo not drawn) [Example 35, Ethyl 4,7-dihydro-4-(2-isopropyloxyphenyl)-6-propyl-2H-pyrazolo[3,4-b]pyridine-5-carboxylate], the melting point came to 210 °C.
The molecule `CCCC1=C(C(=O)OCC)C(c2ccc(Cl)cc2)c2c[nH]nc2N1` (stereo not drawn) [Example 235, Ethyl 4-(4-chlorophenyl)-4,7-dihydro-6-propyl-2H-pyrazolo[3,4-b]pyridine-5-carboxylate] yielded a melting point of 159 to 161 °C.
Molecule `CCCC1=C([N+](=O)[O-])C(c2ccccc2[N+](=O)[O-])c2c[nH]nc2N1` (stereo not drawn) displayed a melting point of 204 °C.
`CCCC1=C(C(=O)OCC)C(c2ccco2)c2c[nH]nc2N1.O=C(O)/C=C\C(=O)O` (stereo not drawn) [Example 59, Ethyl 4-(furan-2-yl)-4,7-dihydro-6-propyl-2H-pyrazolo[3,4-b]pyridine-5-carboxylate maleate] had a melting point of 108 to 111 °C.
In the case of `CCCC1=C(C#N)C(c2cccc(C#N)c2Br)c2c[nH]nc2N1C` (stereo not drawn) [Example 348, 4-(2-Bromo-3-cyanophenyl)-5-cyano-7-methyl-6-propyl-4,7-dihydro-2H-pyrazolo[3,4-b]pyridine] it was 218 to 220 °C; in that of `CCCOC(=O)n1ncc2c1NC(CCC)=C(C(=O)OCC)C2c1ccccc1Cl` (stereo not drawn) [Example 221, Ethyl 4-(2-chlorophenyl)-4,7-dihydro-1-propoxycarbonyl-6-propyl-1H-pyrazolo[3,4-b]pyridine-5-carboxylate], 66 to 68 °C; in that of `CCCC1=C(C(=O)OCC)C(c2sccc2C)c2c[nH]nc2N1` (stereo not drawn) [Example 63, Ethyl 4,7-dihydro-4-(3-methylthiophen-2-yl)-6-propyl-2H-pyrazolo[3,4-b]pyridine-5-carboxylate], 125 °C.

Source of the values: patent US6977262B2, “Dihydropyrazolopyridine compounds and pharmaceutical use thereof” (Mitsubishi Pharma Corporation, priority 2001, dated 2005).
